These are literature values, as cited in patent US20060039891A1, “Antineoplastic-dendritic polymer drug delivery system” (priority 2001, published 2006).

One series deals with B16F10 S.C. tumor. To be noted: at maximum tolerated dose via I.V. administration.
The conditions of series [1]: I.V. administration.

In the case of `N.N.[Cl][Pt][Cl]` [cisplatin, cis-diamminedichloro platinate (II)], in the series with B16F10 S.C. tumor, the “response of B16F10 tumor models” value is “resistant”. Further, the maximum tolerated dose result in series [1] is reported as “about 1 mg/kg”.
